Laboratory results: patent publication US9309263B2, “Fused multi-cyclic sulfone compounds as inhibitors of beta-secretase and methods of use thereof” (AMGEN INC., priority 2013, dated 2016)
Read-outs that look alike come from different tables or passages of the source.

Legend:
Abeta 40 = assay: In vivo inhibition of beta-secretase: Abeta 40 reduction in CSF and brain of the rat; conditions: 10 mpk (unless otherwise noted), after 4 hrs
Description: In Vivo Inhibition of Beta-Secretase
Several animal models, including mouse, rat, dog, and monkey, may be used to screen for inhibition of beta-secretase activity in vivo following administration of a test compound sample. Animals used in this invention can be wild type, transgenic, or gene knockout animals. For example, the Tg2576 mouse model, prepared and conducted as described in Hsiao et al., 1996, Science 274, 99-102, and other non-transgenic or gene knockout animals are useful to analyze in vivo inhibition of Amyloid beta peptide (Abeta) production in the presence of inhibitory test compounds. Generally, 2 to 18 month old Tg2576 mice, gene knockout mice or non-transgenic animals are administered test compounds formulated in vehicles, such as cyclodextran, phosphate buffers, hydroxypropyl methylcellulose or other suitable vehicles. One to twenty-four hours following the administration of compound, animals are sacrificed, and brains as well as cerebrospinal fluid (CSF) and plasma are removed for analysis of A-beta levels and drug or test compound concentrations (Dovey et al., 2001, Journal of Neurochemistry, 76, 173-181) Beginning at time 0, animals are administered by oral gavage, or other means of delivery such as intravenous injection, an inhibitory test compound of up to 100 mg/kg in a standard, conventional formulation, such as 2% hydroxypropyl methylcellulose, 1% Tween80. A separate group of animals receive 2% hydroxypropyl methylcellulose, 1% Tween80 alone, containing no test compound, and serve as a vehicle-control group. At the end of the test period, animals are sacrificed and brain tissues, plasma or cerebrospinal fluid are collected. Brains are either homogenized in 10 volumes (w/v) of 0.2% diethylamine (DEA) in 50 mM NaCl (Best et al., 2005, Journal of Pharmacology and Experimental Therapeutics, 313, 902-908), or in 10 volumes of 0.5% TritonX-100 in Tris-buffered saline (pH at about 7.6). Homogenates are centrifuged at 355,000 g, 4° C. for 30 minutes. CSF or brain supernatants are then analyzed for the presence of A-beta peptide by specific sandwich ELISA assays based on ECL (Electrochemiluminescence) technology. For example, rat Abeta40 is measured using biotinylated-4G8 (Signet) as a capture antibody and Fab40 (an in-house antibody specific to the C-terminal of Abeta40) as a detection antibody. For example, 4 hours after administration of 30 mg/kg oral dose of the test compound in 2% hydroxypropyl methylcellulose, 1% Tween80 (pH2.2) to 200 g male Sprague Dawley rats, amyloid beta peptide levels are measured for reduction by X % and Y % in cerebrospinal fluid and brain, respectively, when compared to the levels measured in the vehicle-treated or control […].
Actual vehicles used: Oral: 2% HPMC, 1% Tween80, pH 2.2
• IV: 5% EtOH, 45% Propylene Glycol in 5% Dextrose
The compounds of the invention may be shown to reduce the formation and/or deposition of amyloid beta peptide in the cerebrospinal fluid (CSF) as well as in the brain of a mouse or rat at either 3 mpk, 10 mpk or 30 mpk (mpk=mg compound per kg weight of the animal) dosing concentrations after 4 hrs.

Cathepsin D (Cat D) = Cathepsin D (Cat D) (Homo sapiens, UniProt P07339); assay: In vitro enzymatic Cathepsin D (Cat D) FRET assay; assay type: biochemical
Cathepsin D (Cat D), sequence (P07339 65-412, species assumed): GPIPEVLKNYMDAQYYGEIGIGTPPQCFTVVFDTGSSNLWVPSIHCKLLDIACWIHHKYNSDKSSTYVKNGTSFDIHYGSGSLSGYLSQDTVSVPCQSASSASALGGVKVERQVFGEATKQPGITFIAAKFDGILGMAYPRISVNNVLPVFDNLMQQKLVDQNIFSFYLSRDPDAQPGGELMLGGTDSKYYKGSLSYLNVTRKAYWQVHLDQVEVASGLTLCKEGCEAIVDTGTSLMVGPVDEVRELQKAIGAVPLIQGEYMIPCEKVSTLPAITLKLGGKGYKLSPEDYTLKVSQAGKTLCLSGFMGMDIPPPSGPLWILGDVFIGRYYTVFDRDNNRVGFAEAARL
Summary of the method: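 Recombinant CHO-expressed enzyme (9 nM) pre-incubated 1 h with serially diluted inhibitor in 0.05 M citrate pH 3.5, 10% DMSO final, 5 mM CHAPS. Reaction started with 20 nM FRET peptide substrate, run 1 h, stopped with Tris to neutral pH; fluorescence read at ex 500/em 580 nm.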

[1] = target: Beta Secretase enzyme (BACE) (Homo sapiens, UniProt P56817); assay: In vitro enzymatic BACE FRET assay; assay type: biochemical; conditions: read-out: BACE1 FRET assay IC50
Beta Secretase enzyme (BACE), sequence (P56817 46-501): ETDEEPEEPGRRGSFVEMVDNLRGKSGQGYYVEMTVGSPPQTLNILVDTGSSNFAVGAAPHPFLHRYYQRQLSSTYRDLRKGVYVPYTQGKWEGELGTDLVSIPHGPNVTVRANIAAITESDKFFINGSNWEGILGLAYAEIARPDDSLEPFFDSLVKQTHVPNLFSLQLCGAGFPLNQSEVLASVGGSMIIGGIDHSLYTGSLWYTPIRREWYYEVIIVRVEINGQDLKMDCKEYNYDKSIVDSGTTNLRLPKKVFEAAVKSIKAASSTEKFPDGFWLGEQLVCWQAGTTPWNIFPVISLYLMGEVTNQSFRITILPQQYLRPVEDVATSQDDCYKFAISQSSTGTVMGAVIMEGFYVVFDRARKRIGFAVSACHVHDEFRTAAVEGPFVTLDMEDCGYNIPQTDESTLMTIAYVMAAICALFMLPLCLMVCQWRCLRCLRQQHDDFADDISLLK
Summary of the method: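 Enzyme (0.2 nM) pre-incubated 1 h with serially diluted inhibitors in 0.05 M acetate pH 4.2, 10% DMSO, 100 uM genapol. Reaction started with 50 nM fluorophore/quencher peptide FRET substrate, run 1 h, stopped with Tris to neutral pH. Fluorescence read at excitation 488 nm, […].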

[2] = test system: Aβ 40 in conditioned medium of cells stably expressing Amyloid Precursor Protein (APP); assay: In vitro BACE cell-based assay (Aβ 40 sandwich ELISA); conditions: Homo sapiens, HEK293
Summary of the method: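 APP-expressing cells, 24 h pre-culture in DMEM/10% FBS, treated 24 h with 10-point compound dilutions from 100 or 10 μM top, 0.1% DMSO final. Secreted Aβ40 quantified by sandwich ELISA (pAb40 capture, biotinylated 6E10 detection, europium TRF); IC50 from percent inhibition versus concentration.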

[3] = Abeta 40 in CSF of the rat, read-out: % reduction of rat CSF levels at 10 pmk
[4] = Abeta 40 in brain of the rat, read-out: % reduction of rat brain levels at 10 mpk
[5] = text summary referring to data in Table 2
[6] = Cathepsin D FRET assay, read-out: CatD IC50
[7] = average IC50, in vitro enzymatic BACE FRET assay
[8] = average IC50, HEK cell assay, Aβ 40 readout

| IC50 (Cathepsin D (Cat D); read-out: CatD IC50) | IC50 (Cathepsin D (Cat D); [5]) | IC50 ([1]; average IC50) | IC50 ([2]; HEK cell, average IC50) | IC50 (Cathepsin D (Cat D); [6]) | IC50 [1, 7] | IC50 [2, 8] | Compound | inhibition in vivo at 10 mg/kg (Abeta 40; [3]) | inhibition in vivo at 10 mg/kg (Abeta 40; [4]) |
| --- | --- | --- | --- | --- | --- | --- | --- | --- | --- |
| 650 µM |  | 0.009 µM | 0.004 µM |  |  |  | COc1cnc(C(=O)Nc2ccc3c(c2)[C@@]2(C)N=C(N)C(C)(C)S(=O)(=O)[C@@H]2C[C@H](C)O3)cn1 [Example 55, N-((4aR,6S,11bR)-2-amino-3,3,6,11b-tetramethyl-4,4-dioxido-4a,5,6,11b-tetrahydro-3H-[1]benzoxepino[4,5-b][1,4]thiazin-10-yl)-5-methoxy-2-pyrazinecarboxamide] | 74% | 70% |
| 544 µM |  | 0.002 µM | 0.001 µM |  |  |  | C[C@H]1C[C@@H]2[C@](C)(N=C(N)C(C)(C)S2(=O)=O)c2cc(Nc3nccc4cc(C#N)cnc34)ccc2O1 [Example 56, 8-(((4aR,6S,11bR)-2-amino-3,3,6,11b-tetramethyl-4,4-dioxido-4a,5,6,11b-tetrahydro-3H-[1]benzoxepino[4,5-b][1,4]thiazin-10-yl)amino)-1,7-naphthyridine-3-carbonitrile] | 70% | 61% |
|  |  |  |  | 607 µM | 0.004 µM | 0.003 µM | C[C@H]1C[C@@H]2[C@](C)(N=C(N)C(C)(C)S2(=O)=O)c2cc(NC(=O)c3ccc(Cl)cn3)ccc2O1 [Example 85, N-((4aR,6S,11bR)-2-amino-3,3,6,11b-tetramethyl-4,4-dioxido-4a,5,6,11b-tetrahydro-3H-[1]benzoxepino[4,5-b][1,4]thiazin-10-yl)-5-chloro-2-pyridinecarboxamide] | 79% | 78% |
|  | > 1200 µM |  |  | 1140 µM | 0.003 µM | 0.002 µM | C[C@H]1C[C@@H]2[C@](C)(N=C(N)C(C)(C)S2(=O)=O)c2cc(NC(=O)c3ccc(C#N)cn3)ccc2O1 [Example 86, N-((4aR,6S,11bR)-2-amino-3,3,6,11b-tetramethyl-4,4-dioxido-4a,5,6,11b-tetrahydro-3H-[1]benzoxepino[4,5-b][1,4]thiazin-10-yl)-5-cyano-2-pyridinecarboxamide] | 79% | 79% |
|  |  |  |  | 505 µM | 0.017 µM | 0.009 µM | CC1(C)C[C@@H]2[C@](C)(N=C(N)C(C)(C)S2(=O)=O)c2cc(Nc3ncnc4cc(C(F)(F)F)cnc34)ccc2O1 [Example 106, (4aR,11bR)-3,3,6,6,11b-pentamethyl-N^~10^~-(7-(trifluoromethyl)pyrido[3,2-d]pyrimidin-4-yl)-4a,5,6,11b-tetrahydro-3H-[1]benzoxepino[4,5-b][1,4]thiazine-2,10-diamine 4,4-dioxide] | 36% | 36% |
|  |  |  |  | 1020 µM | 0.019 µM | 0.007 µM | CC1(C)C[C@@H]2[C@](C)(N=C(N)C(C)(C)S2(=O)=O)c2cc(NC(=O)c3ncc(C(F)(F)F)cc3Cl)ccc2O1 [Example 127, N-((4aR,11bR)-2-amino-3,3,6,6,11b-pentamethyl-4,4-dioxido-4a,5,6,11b-tetrahydro-3H-[1]benzoxepino[4,5-b][1,4]thiazin-10-yl)-3-chloro-5-(trifluoromethyl)-2-pyridinecarboxamide] | 37% | 15% |
|  |  |  |  | 173 µM | 0.004 µM | 0.001 µM | C[C@H]1C[C@@H]2[C@](C)(N=C(N)C(C)(C)S2(=O)=O)c2cc(Nc3nccc4nc(OCc5ncco5)cnc34)ccc2O1 [Example 138, (4aR,6S,11bR)-3,3,6,11b-tetramethyl-N^~10^~-(2-(1,3-oxazol-2-ylmethoxy)pyrido[3,4-b]pyrazin-5-yl)-4a,5,6,11b-tetrahydro-3H-[1]benzoxepino[4,5-b][1,4]thiazine-2,10-diamine 4,4-dioxide] | 46% | 38% |

The remaining lines, values behind:

| Compound | IC50 (Cathepsin D (Cat D); read-out: CatD IC50) | IC50 (Cathepsin D (Cat D); [5]) | IC50 ([1]; average IC50) | IC50 ([2]; HEK cell, average IC50) | IC50 (Cathepsin D (Cat D); [6]) | IC50 [1, 7] | IC50 [2, 8] | inhibition in vivo at 10 mg/kg (Abeta 40; [3]) | inhibition in vivo at 10 mg/kg (Abeta 40; [4]) |
| --- | --- | --- | --- | --- | --- | --- | --- | --- | --- |
| Cc1cc(C(F)(F)F)cnc1C(=O)Nc1ccc2c(c1)[C@@]1(C)N=C(N)C(C)(C)S(=O)(=O)[C@@H]1C[C@H](C)O2 [Example 54, N-((4aR,6S,11bR)-2-amino-3,3,6,11b-tetramethyl-4,4-dioxido-4a,5,6,11b-tetrahydro-3H-[1]benzoxepino[4,5-b][1,4]thiazin-10-yl)-3-methyl-5-(trifluoromethyl)-2-pyridinecarboxamide] | 1620 µM | > 1200 µM | 0.006 µM | 0.001 µM |  |  |  | 76% | 63% |
| C[C@H]1C[C@@H]2[C@](C)(N=C(N)C(C)(C)S2(=O)=O)c2cc(NC(=O)c3ccc(C(F)(F)F)cn3)ccc2O1 [Example 84, N-((4aR,6S,11bR)-2-amino-3,3,6,11b-tetramethyl-4,4-dioxido-4a,5,6,11b-tetrahydro-3H-[1]benzoxepino[4,5-b][1,4]thiazin-10-yl)-5-(trifluoromethyl)-2-pyridinecarboxamide] |  | > 1200 µM |  |  | 2760 µM | 0.012 µM | 0.004 µM | 70% | 68% |
| Cc1cc(C(F)(F)F)cnc1C(=O)Nc1ccc2c(c1)[C@@]1(CF)N=C(N)C(C)(C)S(=O)(=O)[C@@H]1C[C@H](C)O2 [Example 104, N-((4aR,6S,11bS)-2-amino-11b-(fluoromethyl)-3,3,6-trimethyl-4,4-dioxido-4a,5,6,11b-tetrahydro-3H-[1]benzoxepino[4,5-b][1,4]thiazin-10-yl)-3-methyl-5-(trifluoromethyl)-2-pyridinecarboxamide] |  |  |  |  | > 400 µM | 0.014 µM | 0.037 µM | 36% | 11% |
| C[C@H]1C[C@@H]2[C@](C)(N=C(N)C(C)(C)S2(=O)=O)c2cc(NC(=O)c3ncc(Cl)cc3Cl)ccc2O1 [Example 129, N-((4aR,6S,11bR)-2-amino-3,3,6,11b-tetramethyl-4,4-dioxido-4a,5,6,11b-tetrahydro-3H-[1]benzoxepino[4,5-b][1,4]thiazin-10-yl)-3,5-dichloro-2-pyridinecarboxamide] |  |  |  |  | 567 µM | 0.003 µM | 0.002 µM | 21% | 18% |
| C[C@H]1C[C@@H]2[C@](C)(N=C(N)C(C)(C)S2(=O)=O)c2cc(Nc3ncnc4cc(C(F)(F)F)cnc34)ccc2O1 [Example 133, (4aR,6S,11bR)-3,3,6,11b-tetramethyl-N^~10^~-(7-(trifluoromethyl)pyrido[3,2-d]pyrimidin-4-yl)-4a,5,6,11b-tetrahydro-3H-[1]benzoxepino[4,5-b][1,4]thiazine-2,10-diamine 4,4-dioxide] |  |  |  |  | 427 µM | 0.01 µM | 0.005 µM | 63% | 51% |
